Measured values as given in patent US20240358783A1, “METHOD AND SYSTEM FOR THE TRANSDERMAL ADMINISTRATION OF A P[…]” (LYFE CHNG, LLC, priority 2021, published 2024).

Assay: skin flux of psilocin, inventors' testing
Assay type: in vitro ADME
Experimental: With psilocin, specifically, the Madsen et al. findings provide a starting point for identifying optimal plasma psilocin levels that correlate with a desired 5-HT2A receptor occupancy levels. According to the inventors' testing, the skin flux of psilocin is in the range of 1 μg/cm^2/hr to […], on average 5 μg/cm^2/hr. With patch area of 50 cm^2 the dose per hour input ranges from 50 μg/hr/patch to 500 μg/hr/patch. At this patch size, the high end of the hourly input is approaching that of a 1-mg intravenous application. The daily dose ranges from 1.2 mg/day/patch to 12 mg/day/patch. At a skin flux of 5 μg/cm^2/hr, the hourly input is 250 μg/hr/patch and the daily dose is 6 mg/day/patch. A suitable transdermal system for accomplishing the aforementioned delivery profile can be constructed as described above.

[1] = patch area of 50 cm^2, at a skin flux of 5 μg/cm^2/hr

## CN(C)CCc1c[nH]c2cccc(O)c12 [psilocin]
average, according to the inventors' testing
  skin flux of psilocin, on average: 5 μg/cm^2/hr
[1]
  daily dose: 6 mg/day/patch
  hourly input: 250 μg/hr/patch
